Data from PubChem BioAssay AID1963840 (Molecular Pharmacology Branch, DTP, NCI, 2024).

Tested on: 695427-040-R-J1-PDC complex spheroid viability
Assay: Anticancer human tumor 695427-040-R-J1-PDC patient-derived colon adenocarcinoma cell line growth inhibition [POLQ]
Details: for IC50: curve of first compound; for viability, T/C: stronger effect = lower value; active means viability on the fitted dose curve at most 10% of control; inactive means the rest
How it was run: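 PDC + HUVEC + MSC complex spheroids; POLQ inhibitors ± partner drugs; top conc. at/near clinical Cmax, else 10 microM (SN-38 1 microM), half-log dilutions; 37 degrees C, 5% CO2.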

[1] = second compound 0.0316 µM, first compound 0.0316 µM
[2] = second compound 0.0316 µM, first compound 0.1 µM
[3] = second compound 0.0316 µM, first compound 0.316 µM
[4] = second compound 0.0316 µM, first compound 1 µM
[5] = second compound 0.0316 µM, first compound 3.16 µM
[6] = second compound 0.0316 µM, first compound 10 µM
[7] = second compound 0.1 µM, first compound 0.0316 µM
[8] = second compound 0.1 µM, first compound 0.1 µM
[9] = second compound 0.1 µM, first compound 0.316 µM
[10] = second compound 0.1 µM, first compound 1 µM
[11] = second compound 0.1 µM, first compound 3.16 µM
[12] = second compound 0.1 µM, first compound 10 µM
[13] = second compound 0.316 µM, first compound 0.0316 µM
[14] = second compound 0.316 µM, first compound 0.1 µM
[15] = second compound 0.316 µM, first compound 0.316 µM
[16] = second compound 0.316 µM, first compound 1 µM
[17] = second compound 0.316 µM, first compound 3.16 µM
[18] = second compound 0.316 µM, first compound 10 µM
[19] = second compound 1 µM, first compound 0.0316 µM
[20] = second compound 1 µM, first compound 0.1 µM
[21] = second compound 1 µM, first compound 0.316 µM
[22] = second compound 1 µM, first compound 1 µM
[23] = second compound 1 µM, first compound 3.16 µM
[24] = second compound 1 µM, first compound 10 µM
[25] = second compound 3.16 µM, first compound 0.0316 µM
[26] = second compound 3.16 µM, first compound 0.1 µM
[27] = second compound 3.16 µM, first compound 0.316 µM
[28] = second compound 3.16 µM, first compound 1 µM
[29] = second compound 3.16 µM, first compound 3.16 µM
[30] = second compound 3.16 µM, first compound 10 µM
[31] = second compound 10 µM, first compound 0.0316 µM
[32] = second compound 10 µM, first compound 0.1 µM
[33] = second compound 10 µM, first compound 0.316 µM
[34] = second compound 10 µM, first compound 1 µM
[35] = second compound 10 µM, first compound 3.16 µM
[36] = second compound 10 µM, first compound 10 µM
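Further: spheroids exposed to compounds for seven days.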
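Wherever viability, T/C is given: 100% = DMSO vehicle control viability.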

C#Cc1c(F)ccc2cc(O)cc(-c3ncc4c(N5CC6CCC(C5)N6)nc(OCC56CCCN5CC(F)C6)nc4c3F)c12 (centres undefined) + Nc1ccc(C#CCN(C(=O)Cc2ncc(C(F)(F)F)cc2C(F)(F)F)c2ccc(F)cc2)nn1
inactive: viability, T/C [1] 104% | viability, T/C [2] 102% | viability, T/C [3] 106% | viability, T/C [4] 97.9% | viability, T/C [5] 102% | viability, T/C [6] 88.7% | viability, T/C [7] 118% | viability, T/C [8] 96.9% | viability, T/C [9] 105% | viability, T/C [10] 98.9% | viability, T/C [11] 96.9% | viability, T/C [12] 89.4% | viability, T/C [13] 109% | viability, T/C [14] 105% | viability, T/C [15] 92.3% | viability, T/C [16] 101% | viability, T/C [17] 99.4% | viability, T/C [18] 78.9% | viability, T/C [19] 107% | viability, T/C [20] 95.5% | viability, T/C [21] 97.2% | viability, T/C [22] 108% | viability, T/C [23] 103% | viability, T/C [24] 79.6% | viability, T/C [25] 94.5% | viability, T/C [26] 94.9% | viability, T/C [27] 105% | viability, T/C [28] 86.7% | viability, T/C [29] 96% | viability, T/C [30] 84.6% | viability, T/C [31] 92% | viability, T/C [32] 104% | viability, T/C [33] 86.9% | viability, T/C [34] 83.6% | viability, T/C [35] 73.7% | viability, T/C [36] 69.3%
> 10 µM: IC50 (second compound 0.0316 µM) | IC50 (second compound 0.1 µM) | IC50 (second compound 0.316 µM) | IC50 (second compound 1 µM) | IC50 (second compound 3.16 µM) | IC50 (second compound 10 µM)

CC1COCCN1c1cc(C2(O)CC3CCC(C2)O3)c2cnn(-c3ccn[nH]3)c2n1 (centres undefined) + Nc1ccc(C#CCN(C(=O)Cc2ncc(C(F)(F)F)cc2C(F)(F)F)c2ccc(F)cc2)nn1
> 10 µM: IC50 (second compound 0.0316 µM) | IC50 (second compound 0.1 µM) | IC50 (second compound 0.316 µM) | IC50 (second compound 1 µM) | IC50 (second compound 3.16 µM) | IC50 (second compound 10 µM)
inactive: viability, T/C [1] 103% | viability, T/C [2] 92.9% | viability, T/C [3] 83% | viability, T/C [4] 78.6% | viability, T/C [5] 65.9% | viability, T/C [6] 60.5% | viability, T/C [7] 111% | viability, T/C [8] 96.5% | viability, T/C [9] 88% | viability, T/C [10] 76.3% | viability, T/C [11] 69% | viability, T/C [12] 56.3% | viability, T/C [13] 99.4% | viability, T/C [14] 96.7% | viability, T/C [15] 76.7% | viability, T/C [16] 72.4% | viability, T/C [17] 70.3% | viability, T/C [18] 54.5% | viability, T/C [19] 106% | viability, T/C [20] 95.3% | viability, T/C [21] 84% | viability, T/C [22] 70.5% | viability, T/C [23] 66.4% | viability, T/C [24] 49.5% | viability, T/C [25] 104% | viability, T/C [26] 87% | viability, T/C [27] 86.4% | viability, T/C [28] 66.6% | viability, T/C [29] 62.4% | viability, T/C [30] 58.6% | viability, T/C [31] 106% | viability, T/C [32] 91.2% | viability, T/C [33] 78.3% | viability, T/C [34] 65.1% | viability, T/C [35] 58.9% | viability, T/C [36] 56.9%
